According to US4235905A, “1H-Pyrimido[4,5-c]-1,2-diazepines” (Burroughs Wellcome Co., priority 1977, dated 1980):
Where two headings read alike, the source gives them in different places.

Key:
[1] = tested on: Eimeria tenella (Weybridge); assay: Anti-coccidial activity in vitro, chick embryo liver cell cultures with Eimeria tenella sporozites; type: cell-based; conditions: for Activity, Alone: compound alone; for Activity, With DV/SQX: with sulphaquinoxaline (0.01 μg/ml) and diaveridine (0.031 μg/ml); for minimal effective concentration: Eimeria tenella, read-out: minimum active anti-coccidial amount
Experimental: The anti-coccidial activity of compounds of formula (III) alone and in combination with a mixture of diaveridine (DV) and sulphaquinoxaline (SQX) in vitro was tested according to the following procedure.
Using standard test procedures employing primary explant cultures of chick embryo liver cells and a suspension of Eimeria tenella (Weybridge) sporozites the activity of the compounds was determined at various concentrations. In the above test, each test compound was used either alone or in combination with sulphaquinoxaline (0.01 μg/ml) and diaveridine (0.031 μg/ml). It should be noted that the minimum active anti-coccidial amounts of sulphaquinoxaline and diaveridine are 0.024 μg/ml and 0.098 μg/ml respectively.
The following results were obtained wherein activity is expressed as follows: […]

LD50 in mice = conditions: mouse, in vivo, ip
Experimental: By standard techniques the LD50 values of the following compounds of formula (I) were determined in mice.

Staphylococcus aureus = assay: Antibacterial activity of trimethoprim and sulphamethoxazole alone and in combination with compounds of formula (II) (activity index); type: cell-based; conditions: compound of formula (II) at 50 μg/ml, viable counts after 24 hours incubation of 10^6 organisms per ml; for activity index, SMX: in combination with sulphamethoxazole (SMX); for activity index, TMP: in combination with trimethoprim (TMP)
Experimental: The antibacterial activity against Staphylococcus aureus of trimethoprim (TMP) and sulphamethoxazole (SMX) alone and in combination with compounds of formula (II) were compared.
The results shown in the table are expressed as an activity index which is: [formula] the effect of the compounds being measured by viable counts after 24 hours incubation of 10^6 organisms per ml.
In this test, the compounds of formula (II) were present at 50 μg/ml.
An activity index ≥2 is indicative of substantial potentiation: […]

[2] = tested on: Weybridge strain of Eimeria tenella; assay: Anti-coccidial activity in vivo in chicks, caecal lesion score; conditions: compound 200 ppm in diet with DV 20 ppm and SQX 20 ppm, sixth day after infection, scale 0-3, dead = 4
Experimental: Compounds of formula (III) were tested for anti-coccidial activity in vivo in combination with diaveridine (DV) and sulphaquinoxaline (SQX), each at 20 ppm, according to the following procedure. Groups of five, one week old chicks were each injected orally with 6,000 sporulated o cysts of the Weybridge strain of Eimeria tenella. Drugs were administered in LD 5 chick mash deficient in Vitamin K, beginning on the day of infection and continuing for 7 days. On the sixth day after infection, caecal lesions of surviving chicks were scored on a scale of 0, 1, 2 or 3 and any dead chicks were scored as 4.

## CN1N=C(c2ccccc2)C=C(c2ccccc2)c2c1nc(N)[nH]c2=O [Example 1, 8-Amino-3,5-diphenyl-1-methyl-1H-pyrimido{4,5-c}-1,2-diazepin-6(7H)-one]
[1]; concentration 25 μg/ml
  Activity, Alone: 4 (1-25% parasite development)
  Activity, With DV/SQX: 4 (1-25% parasite development)

## CC1=CC(C)=NN(C)c2nc(N)[nH]c(=O)c21 [Example 2, 8-Amino-1,3,5-trimethyl-1H-pyrimido{4,5-c}-1,2-diazepin-6(7H)-one]
LD50 in mice
  LD50: ~500 mg/kg

## COC(=O)C1=NN(C)c2nc(N)[nH]c(=O)c2C(c2cccc(O)c2)=C1 [Example 3, 8-Amino-3-carbomethoxy-5-(3-hydroxyphenyl)-1-methyl-1H-pyrimido{4,5-c}-1,2-diazepin-6(7H)-one]
Staphylococcus aureus
  activity index, SMX: 2.7
  activity index, TMP: 0.9

## CCOC(=O)C1=NN(C)c2nc(N)[nH]c(=O)c2C(c2ccccc2)=C1 [Example 5, 8-Amino-3-carbethoxy-1-methyl-5-phenyl-1H-pyrimido-{4,5-c}-1,2-diazepin-6(7H)-one]
Staphylococcus aureus
  activity index, SMX: > 2.8
  activity index, TMP: 2.0

## COC(=O)C1=NN(C)c2nc(N)[nH]c(=O)c2C(c2cc(OC)c(OC)c(OC)c2)=C1 [Example 6, 8-Amino-3-carbomethoxy-1-methyl-5-(3,4,5-trimethoxyphenyl)-1H-pyrimido{4,5-c}-1,2-diazepin-6(7H)-one]
[2]
  Lesion score: 0.6
[1]; concentration 1.56 μg/ml
  Activity, Alone: 2 (51-75% parasite development)
  Activity, With DV/SQX: 3 (26-50% parasite development)
[1]; concentration 6.25 μg/ml
  Activity, Alone: 3 (26-50% parasite development)
  Activity, With DV/SQX: 3 (26-50% parasite development)
[1]; concentration 25 μg/ml
  Activity, Alone: 3 (26-50% parasite development)
  Activity, With DV/SQX: 4 (1-25% parasite development)
[1]; concentration 100 μg/ml
  Activity, Alone: 3 (26-50% parasite development)
  Activity, With DV/SQX: 5

## CCOC(=O)C1=NN(C)c2nc(N)[nH]c(=O)c2C(c2ccc(OC)cc2OC)=C1 [Example 7, 8-Amino-3-carbethoxy-1-methyl-5-(2,4-dimethoxyphenyl)1H-pyrimido{4,5-c}-1,2-diazepin-6(7H)-one]
[2]
  Lesion score: 1.2
[1]; concentration 1.56 μg/ml
  Activity, Alone: 0 (95-100% parasite development)
  Activity, With DV/SQX: 2 (51-75% parasite development)
[1]; concentration 6.25 μg/ml
  Activity, Alone: 2 (51-75% parasite development)
  Activity, With DV/SQX: 3 (26-50% parasite development)
[1]; concentration 25 μg/ml
  Activity, Alone: 4 (1-25% parasite development)
  Activity, With DV/SQX: 5
[1]; concentration 100 μg/ml
  Activity, Alone: 4 (1-25% parasite development)
  Activity, With DV/SQX: 5

## COc1ccc(Cc2cnc(N)nc2N)cc1OC [diaveridine, reference compound]
[1]
  minimal effective concentration: 0.098 µg/mL

## COC(=O)C1=NN(C)c2nc(N)[nH]c(=O)c2C(c2cc(OC)c(OC)c(OC)c2)=C1 [drawing 31]
LD50 in mice
  LD50: > 500 mg/kg

## Nc1ccc(S(=O)(=O)Nc2cnc3ccccc3n2)cc1 [sulphaquinoxaline, reference compound]
[1]; in vitro, alone
  minimal effective concentration: 0.024 µg/mL
